The record followed here is patent US11166920B2, “Microfluidics device for fabrication of large, uniform, injectable hydrogel microparticles for cell encapsulation” (Auburn University, priority 2017, dated 2021).

In this experiment the test system is microsphere CMs. The experiment is described as follows: Multielectrode array: drug response and exogenous pacing. Format: cell-based, human. The conditions noted are these: day 20 microsphere CMs; isoproterenol 1 μM, then propranolol 1 μM. Here is the method: Day 20 and 50 dissociated microsphere CMs were seeded onto a fibronectin coated S2 type MEA200/30-Ti-gr (Multichannel Systems) and cultured for at least 24 h. Adhering microsphere CMs were perfused with Tyrode's solution, composed of 1.8 mM CaCl2), 5 mM glucose, 5 mM HEPES, 1 mM MgCl2, 5.4 mM KCl, 135 mM NaCl, and 0.33 mM NaH2PO4 at pH 7.4 and 37° C. Once stabilized, field potentials of spontaneous contractions were recorded at a sampling frequency of 10 kHz. Drug response of day 20 microsphere CMs was tested by adding the β-adrenergic agonist isoproterenol (1 μM) and antagonist propranolol (1 μM). Day 50 microsphere CMs were exogenously paced from 0.5-6.0 Hz.

Each structure is given as a SMILES string. Entries after “also recorded” stand apart in the source; their conditions may differ.

For `CC(C)NCC(O)COc1cccc2ccccc12` (centres unmarked) [propranolol], the “Effect on contraction rate” value is “slowed down the rate of contraction; also recorded: reversed the initial increase in contraction rate”.

For `CC(C)NCC(O)c1ccc(O)c(O)c1` (centres unmarked) [isoproterenol], the “Effect on contraction rate” value was “increases the frequency of contraction; also recorded: increasing the contraction rate”.
